Columns and labels:
[1] = Measurement of the imperceptible water loss (IWL) with an evaporimeter (Servomed); details: compound at 1% in dichloromethane/methanol (2/1 v/v), applied on delipidated stratum corneum; measured 20 hours after application
Method: Measurement of the imperceptible water loss (IWL)
This measurement was carried out using an evaporimeter (Servomed) which quantitatively determines the evaporation of water, that is transportation of water by diffusion, from a stratum corneum sample which seals a cylindrical capsule containing water, the whole assembly being placed in a chamber with controlled relative temperature and controlled relative humidity.
Sensors made it possible to measure the partial vapour pressure of water at two points situated at different distances from the sample.
The partial vapour pressure of water gradient between the two points was thus determined and therefore the degree of evaporation in accordance with Fick's law.
This measurement is carried out for:
The compounds were prepared in the proportion of 1% in a dichloromethane/methanol (2/1 v/v) mixture and then applied on pieces of delipidated stratum comeum.
The imperceptible water loss (IWL) for each compound was measured 20 hours after application.

Row | SMILES | I.W.L. (imperceptible water loss) [1] | melting point [°C]
1 | CCCCCCCCCCCCNC(=O)N(C)C[C@H](O)[C@@H](O)[C@H](O)[C@H](O)CO [Example 1, N-dodecylaminocarbonyl-N-methyl-D-glucamine] | −21 +/− 2 | 116.8
2 | CCCCCCCCNC(=O)N(C)C[C@H](O)[C@@H](O)[C@H](O)[C@H](O)CO [Example 8, N-octylaminocarbonyl-N-methyl-D-glucamine] |  | 111.4
3 | CCCCCCCCCCCC(=O)N(C)C[C@H](O)[C@@H](O)[C@H](O)[C@H](O)CO [Reference A, N-dodecanoyl-N-methyl-D-glucamine] | −11 +/− 3 | 
4 | CCCCCCCCCCCCOC(=O)N(C)C[C@H](O)[C@@H](O)[C@H](O)[C@H](O)CO [Reference B, N-dodecyloxycarbonyl-N-methyl-D-lucamine] | −9 +/− 2 | 
